What all share (format): in vitro ADME
A short description of data set [1]: Caco-2 permeability assay. Conditions: human; for recovery at 90 min, 10 µM / efflux ratio at 90 min, 10 µM: Caco-2, pH 7.4; for Papp A→B at 90 min, 10 µM: pH 7.4, Caco-2, AB. How it is done: Caco-2 cells were cultured in 75 cm^2 flasks to 80-90% confluence according to the ATCC and Millipore recommendations (Arena A. et al., 2003) in humidified atmosphere at 37° C. and 5% CO2. Cells were detached with Trypsin/EDTA solution and resuspended in the cell culture medium to a final concentration of 2×10^5 cells/ml. 500 μl of the cell suspension was added to each well of HTS 24-Multiwell Insert System and 1000 μl of prewarmed complete medium was added to each well of the feeder-plate. Caco-2 cells were incubated in Multiwell Insert System for 21 days before the transport experiments. The medium in filter plate and feeder tray was refreshed every other day. After 21 days of the cell growth, the integrity of the monolayer was verified by measuring the transepithelial electrical resistance (TEER) for every well using the Millicell-ERS system ohm meter. The final TEER values were within the range 150-600 Ω×cm^2 (Srinivasan B. et al., 2015) as required for the assay conditions. 24-well insert plate was removed from its feeder plate and placed in a new sterile 24-well transport analysis plate. The inserts were washed with PBS after medium aspiration. To determine the rate of compounds transport in apical (A)-to-basolateral (B) direction, 300 μL of the test compound dissolved in transport buffer at 10 μM (HBSS, 25 mM HEPES, pH=7.4) was added into the filter wells; 1000 μL of buffer (HBSS, 25 mM HEPES, pH=7.4) was added to transport analysis plate wells. Propranolol, Atenolol, Quinidine and Digoxin were used as reference compounds. The plates were incubated for 90 min at 37° C. under continuous shaking at 50 rpm. 75 μL aliquots were taken from the donor and receiver compartments for LC-MS/MS analysis. All samples were mixed with 2 volumes of acetonitrile followed by protein sedimentation by centrifuging at 10000 rpm for 10 minutes. Supernatants were analyzed using the HPLC system coupled with tandem mass spectrometer. The apparent permeability (Papp) was calculated for Caco-2 permeability assay using the following equation:
• VA=volume of transport buffer in acceptor well • Area=surface area of the insert (equals to effective growth area of the insert −0.31 sq.cm) • Time=time of the assay • [drug]acc=concentration of test compound in acceptor well • [drug]initial,d=initial concentration of test compound in a donor well • Papp is expressed in 10^−6 cm/sec.
The % recovery can be useful in interpreting the Caco-2 data. If the recovery is very low, this may indicate poor solubility, binding of the compound to the test plate materials, metabolism by the Caco-2 cells, or accumulation of the compound in the cell monolayer. The % recovery was calculated using the following equation:
• Vacc=volume of compound solution in acceptor well […] • Vd=volume of compound solution in […] • Cacc=concentration of test compound in acceptor well (μM) • Cinitial,d=initial concentration of test compound in a donor well (μM)
In general terms: Caco-2 cells form a polarised layer with tight junctions and transporters.

Data set [2] is described as follows: Metabolic stability in hepatocytes, dog. Conditions: Beagle, pooled cryopreserved hepatocytes, read-out: Dog Clint (μL/min/10^6 cells). The procedure:
The aim of this assay is to determine the metabolic stability of the compound in hepatocytes (cryopreserved) of different species (mouse CD1, rat Sprague Dawley, dog Beagle). Low hepatocyte stability may result in the formation of unwanted metabolites, high clearance, and therefore is not desirable. The decrease in parent was assessed by measuring the percentage remaining by LC-MS/MS analysis. The batches of hepatocytes were tested for quality control using Testosterone, Umbelliferone and Caffeine as reference compounds.
A 10 mM stock solution of test compound in DMSO was first diluted in DMSO to 3 mM, and then in modified Krebs-Henseleit buffer (Sigma, K3753) to 5 μM. This compound dilution was added to a suspension of pooled cryopreserved hepatocytes (BioIVT) at 37° C. under gentle shaking. […]
After 0, 10, 20, 45, 90, 120 and 180 min of incubation, the reaction was terminated with 3 volumes of MeCN:MeOH (2:1) containing diclofenac as analytical internal standard. Samples were mixed, centrifuged and the supernatant analyzed by LC-MS/MS (systems API4000). […]
Testosterone (1 μM) and Umbelliferone (1 μM) and Caffeine (1 μM) were used as reference compounds, being unstable and stable compounds respectively. If the hepatocyte stability values for these controls are not in the range determined by the historical data, the assay is not validated.

Data set [3] can be described thus: Liver microsomal stability, dog. Conditions: male, Beagle, pH 7.4, liver microsomes. The procedure: Mouse hepatic microsomes were isolated from pooled, perfused livers of male CD1 mice. Rat hepatic microsomes were isolated from pooled, perfused livers of male Sprague Dawley rats. Dog hepatic microsomes were isolated from pooled, perfused livers of male Beagle dogs. The batches of microsomes were tested for quality control using Testosterone, Propranolol and Caffeine as reference compounds.
A 10 mM stock solution of compound in DMSO is diluted three-fold in DMSO. This pre-diluted compound solution is then further diluted to 2 μM in a 50 mM phosphate buffer (PBS, pH 7.4) and pre-warmed at 37° C. This compound dilution is mixed F2 with microsomal/cofactor mix at 37° C. under shaking at 300 rpm. Final reaction conditions are: 100 μL incubation volume, 1 μM of test compound (in duplicate), <0.1% DMSO, 0.5 mg/mL microsomes, 0.6 U/mL Glucose-6-phosphate-dehydrogenase (G6PDH, Roche, 10127671001), 3.3 mM MgCl2 (Sigma, M2670), 3.3 mM glucose-6-phosphate (Sigma, G-7879) and 1.3 mM NADP+ (Sigma, N-0505).
After 60 min of incubation at 300 rpm and 37° C., the reaction was stopped with 3 volumes of STOP solution (acetonitrile/MeOH 2/1 with diclofenac as internal standard). For the time point zero, 3 volumes of STOP solution were added to the compound dilution before the microsome mix was added. Six time points over 60 minutes have been analyzed. The samples of all time points were centrifuged, filtered and the supernatant analyzed by LCMS/MS (systems API4000).
The instrument responses (peak areas/IS peak area) were referenced to the zero time-point samples (considered as 100%) in order to determine the percentage of compound remaining.
Testosterone (1 μM) and Propranolol and Caffeine (1 μM) were used as reference compounds, being unstable and stable compounds respectively. If the microsomal stability values for these controls are not in the range determined by the historical data, the assay is not validated. The solubility of the compound in the final test concentration in 50 mM buffer pH 7.4 is checked by microscope to indicate whether precipitation is observed or not. If a precipitate is observed, no data of microsomal stability is generated.

Data set [4] can be described thus: Caco-2 permeability assay. Conditions: human, pH 7.4; Caco-2, BA.

Data on five compounds can be found in patent publication US20240368133A1, “Compounds for the Treatment of Pain, in Particular, Neuropathic Pain, and/or Other Diseases or Disorders that are Associated with AT2R and/or AT2R Mediated Signaling” (Confo Therapeutics N.V., priority 2021, published 2024).

In data set [1], `CC(C)Cc1ccc(-c2nn[nH]n2)c(N2CCN(Cc3nc4ccccc4c(=O)[nH]3)CC2)c1` [Compound A-31, 2-[[4-[5-isobutyl-2-(2H-tetrazol-5-yl)phenyl]piperazin-1-yl]methyl]-3H-quinazolin-4-one] yielded a recovery at 90 min, 10 µM of 77% and a Papp A→B at 90 min, 10 µM of 2.8 ×10⁻⁶ cm/s.
The corresponding values for `CC(C)Cc1ccc(-c2nn[nH]n2)c(N2CCN(Cc3cccnn3)CC2)c1` [Compound A-90, 3-[[4-[5-isobutyl-2-(2H-tetrazol-5-yl)phenyl]piperazin-1-yl]methyl]pyridazine] are 91% and under 3.4 ×10⁻⁶ cm/s.
For the compound `CC(C)Cc1cc(F)c(-c2nn[nH]n2)c(N2CCN(Cc3cccnn3)[C@@H](C)C2)c1` [Compound A-174, 3-[[(2S)-4-[3-fluoro-5-isobutyl-2-(2H-tetrazol-5-yl)phenyl]-2-methyl-piperazin-1-yl]methyl]pyridazine], the hepatocyte CLint at 1 µM in data set [2] is under 5.1 µL/min/1e6 cells. The compound further yielded a microsomal CLint at 1 µM in data set [3] of under 11.7 µL/min/mg. In data set [1], the efflux ratio at 90 min, 10 µM worked out at 16; the recovery at 90 min, 10 µM was found to be 90%; the Papp A→B at 90 min, 10 µM was 0.15 ×10⁻⁶ cm/s. In data set [4], the Papp B→A at 90 min, 10 µM is 2.4 ×10⁻⁶ cm/s.
As to `CCC1CN(c2cc(CC(C)C)cc(F)c2-c2nn[nH]n2)CCN1Cc1cccnn1` (stereo not shown) [Compound A-178, 3-[[2-ethyl-4-[3-fluoro-5-isobutyl-2-(2H-tetrazol-5-yl)phenyl]piperazin-1-yl]methyl]pyridazine], in data set [1], the efflux ratio at 90 min, 10 µM was found to be 7.2; the recovery at 90 min, 10 µM came to 94%; the apical-to-basolateral permeability (Papp A→B) at 90 min, 10 µM came to 1.2 ×10⁻⁶ cm/s. In addition, the Papp B→A at 90 min, 10 µM in data set [4] amounted to 8.6 ×10⁻⁶ cm/s.
With `CC(C)Cc1cc(F)c(-c2nn[nH]n2)c(N2CCN(Cc3ccccn3)[C@@H](C)C2)c1` [Compound A-217, (2S)-4-[3-fluoro-5-isobutyl-2-(2H-tetrazol-5-yl)phenyl]-2-methyl-1-(2-pyridylmethyl)piperazine], the hepatocyte CLint at 1 µM in data set [2] is under 5.1 µL/min/1e6 cells. The compound also yielded an intrinsic metabolic clearance (microsomal CLint) at 1 µM in data set [3] of under 11.5 µL/min/mg.

What is called Papp A→B is how fast a substance crosses the layer from the apical side. One may read the microsomal CLint as the capacity of the preparation to metabolise the compound, expressed as a volume cleared per time. High values mean faster metabolism, low ones greater metabolic stability. Broadly, the efflux ratio is the permeability from basolateral to apical divided by that in the opposite direction, in the common usage. By Papp B→A is commonly meant the apparent permeability from the basolateral to the apical side of a cell layer.
